Measurements: US20240350493A1 (Kadmon Corporation, LLC, priority 2022, published 2024)
Structures can show the parent of a compound that is named as a salt. Marks after values point to notes of the source that are not given here.

What was measured:
[1] = solubility of belumosudil mesylate in solvents; assay type: physicochemical
ROCK2 = ROCK2 (Homo sapiens, UniProt O75116); assay: ROCK2 inhibition; assay type: biochemical
[2] = phase I two-part drug-drug interaction study, plasma pharmacokinetics (Example 1); assay type: in vivo, human
From the text: The secondary objective was to provide additional information on the safety and tolerability of this dose regimen in healthy males.
This was a single center, non-randomized, DDI study in 35 (Part 1) and 38 (Part 2) healthy males. The key inclusion criterion was males aged 18 to 55 years (inclusive). […] In Part 2, co-administration with omeprazole was studied. The study design is illustrated in FIG. 1.
At least a 2-to 8-day washout occurred between each period to account for a minimum of 5 half-lives of the active moieties dosed in the preceding period.
Blood samples were collected into 6 mL K,EDTA tubes and were processed within 30 minutes of collection. The resultant plasma was then frozen within 90 minutes of collection and stored at […] until shipment to the bioanalytical laboratory.
For each comparison, PK parameters were natural log transformed and analyzed using mixed effect modeling with treatment included as a fixed effect and subject as a random effect. Adjusted geometric mean ratios (GMRs) and corresponding 90% CIs were calculated.

[3] = human, in vivo
patients with cGVHD = conditions: cited from earlier work
[4] = 200 mg belumosudil BID + omeprazole
[5] = 200 mg belumosudil BID + omeprazole, first dose
[6] = 200 mg belumosudil BID + omeprazole, second dose
[7] = 200 mg belumosudil BID alone, first dose
[8] = 200 mg belumosudil BID alone, second dose
[9] = 200 mg belumosudil single dose + rifampicin
[10] = 200 mg belumosudil single dose alone
[11] = coadministration of itraconazole
[12] = coadministration of rabeprazole
[13] = 200 mg belumosudil single dose + itraconazole
[14] = 200 mg belumosudil single dose + rabeprazole

Chain of ROCK2 (O75116 whole entry): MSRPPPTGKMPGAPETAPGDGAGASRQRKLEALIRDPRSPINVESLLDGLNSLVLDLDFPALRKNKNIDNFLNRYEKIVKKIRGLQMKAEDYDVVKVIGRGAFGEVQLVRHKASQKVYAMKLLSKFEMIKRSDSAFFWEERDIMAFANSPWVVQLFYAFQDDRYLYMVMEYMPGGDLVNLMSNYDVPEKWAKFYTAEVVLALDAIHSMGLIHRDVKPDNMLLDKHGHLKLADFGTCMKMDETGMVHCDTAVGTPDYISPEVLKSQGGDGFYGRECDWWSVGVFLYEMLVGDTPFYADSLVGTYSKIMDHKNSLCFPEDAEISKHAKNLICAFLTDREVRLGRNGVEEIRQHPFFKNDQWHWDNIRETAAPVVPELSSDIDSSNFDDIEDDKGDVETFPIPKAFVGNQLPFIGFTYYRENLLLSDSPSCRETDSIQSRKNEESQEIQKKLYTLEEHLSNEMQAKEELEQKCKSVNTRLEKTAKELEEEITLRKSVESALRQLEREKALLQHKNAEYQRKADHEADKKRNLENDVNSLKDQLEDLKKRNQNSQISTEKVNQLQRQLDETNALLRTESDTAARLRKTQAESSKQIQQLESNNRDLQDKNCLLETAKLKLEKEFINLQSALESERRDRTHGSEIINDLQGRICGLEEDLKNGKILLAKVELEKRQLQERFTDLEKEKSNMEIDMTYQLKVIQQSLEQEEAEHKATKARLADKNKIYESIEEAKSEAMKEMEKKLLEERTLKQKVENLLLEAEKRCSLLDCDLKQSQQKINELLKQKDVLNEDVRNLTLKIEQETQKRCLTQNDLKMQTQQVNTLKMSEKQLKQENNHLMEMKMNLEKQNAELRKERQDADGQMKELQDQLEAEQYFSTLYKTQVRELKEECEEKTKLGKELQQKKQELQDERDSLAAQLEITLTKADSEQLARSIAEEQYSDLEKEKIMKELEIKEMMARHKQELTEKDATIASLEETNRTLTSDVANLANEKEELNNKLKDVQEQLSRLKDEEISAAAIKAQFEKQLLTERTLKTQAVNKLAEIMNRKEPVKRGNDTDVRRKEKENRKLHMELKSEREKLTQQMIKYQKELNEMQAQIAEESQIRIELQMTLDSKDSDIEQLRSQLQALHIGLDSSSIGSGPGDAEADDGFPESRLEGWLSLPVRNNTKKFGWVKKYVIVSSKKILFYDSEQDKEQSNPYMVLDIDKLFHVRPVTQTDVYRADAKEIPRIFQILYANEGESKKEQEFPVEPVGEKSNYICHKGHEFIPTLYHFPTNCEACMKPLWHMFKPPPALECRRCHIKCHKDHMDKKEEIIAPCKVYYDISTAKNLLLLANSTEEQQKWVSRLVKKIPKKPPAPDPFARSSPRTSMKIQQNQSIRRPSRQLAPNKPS

## CC(C)NC(=O)COc1cccc(-c2nc(Nc3ccc4[nH]ncc4c3)c3ccccc3n2)c1 [Belumosudil mesylate, 2-{3-[4-(1H-indazol-5-ylamino)-2-quinazolinyl]phenoxy}-N-(propan-2-yl) acetamide methanesulfonate (1:1)]
[1]; DMF
  solubility in DMF: slightly soluble
[1]; DMSO
  solubility in DMSO: soluble
[1]; methanol
  solubility in methanol: slightly soluble
[1]; water
  solubility in water: practically insoluble

## NC(=O)COc1cccc(-c2nc(Nc3ccc4[nH]ncc4c3)c3ccccc3n2)c1 [KD025m1]
ROCK2
  ROCK2 activity of metabolite: active
[2]
  increase in AUClast vs belumosudil alone: 150%
  increase in Cmax vs belumosudil alone: 129%
[2]; [4]
  AUC0-24, arithmetic mean (SD): 113 (81.2) ^q ng*h/mL
  AUC0-24, geometric mean (geometric CV %): 91.5 (76.3) ^q; ng*h/mL
  AUCinf, arithmetic mean (SD): 279 (122) ^t ng*h/mL
  AUCinf, geometric mean (geometric CV %): 265 (47.6) ^t; ng*h/mL
  AUClast, arithmetic mean (SD): 164 (100) ^q ng*h/mL
  AUClast, geometric mean (geometric CV %): 123 (114.0) ^q; ng*h/mL
  t1/2, arithmetic mean (SD): 2.31 (0.848) ^u h
  t1/2, geometric mean (geometric CV %): 2.21 (39.0) ^u; h
[2]; [5]
  Cmax, arithmetic mean (SD): 20.5 (11.4) ^j ng/mL
  Cmax, geometric mean (geometric CV %): 18.0 (54.6) ^j; ng/mL
  Tmax, median (range): 3.00 (1.00-5.00) h
[2]; [6]
  Cmax, arithmetic mean (SD): 21.2 (11.3) ^s ng/mL
  Cmax, geometric mean (geometric CV %): 18.9 (48.7) ^s; ng/mL
  Tmax, median (range): 16.50 (13.50-22.00) h
[2]; 200 mg belumosudil BID alone
  AUC0-24, arithmetic mean (SD): 187 (161) ^l ng*h/mL
  AUC0-24, geometric mean (geometric CV %): 138 (91.3) ^l; ng*h/mL
  AUCinf, arithmetic mean (SD): 287 (149) ^o ng*h/mL
  AUCinf, geometric mean (geometric CV %): 259 (47.7) ^o; ng*h/mL
  AUClast, arithmetic mean (SD): 205 (153) ^l ng*h/mL
  AUClast, geometric mean (geometric CV %): 157 (93.0) ^l; ng*h/mL
  t1/2, arithmetic mean (SD): 2.30 (0.757) ^p h
  t1/2, geometric mean (geometric CV %): 2.19 (34.2) ^p; h
[2]; [7]
  Cmax, arithmetic mean (SD): 25.8 (12.6) ^n ng/mL
  Cmax, geometric mean (geometric CV %): 23.8 (39.6) ^n; ng/mL
  Tmax, median (range): 2.00 (1.00-6.00) h
[2]; [8]
  Cmax, arithmetic mean (SD): 26.1 (12.7) ^n ng/mL
  Cmax, geometric mean (geometric CV %): 23.6 (46.4) ^n; ng/mL
  Tmax, median (range): 13.98 (13.00-24.00) h
[2]; [9]
  AUC0-24, arithmetic mean (SD): 159 (61.2) ^c ng*h/mL
  AUC0-24, geometric mean (geometric CV %): 148 (41.9) ^c; ng*h/mL
  AUCinf, arithmetic mean (SD): 190 (37.7) ^i ng*h/mL
  AUCinf, geometric mean (geometric CV %): 187 (20.0) ^i; ng*h/mL
  AUClast, arithmetic mean (SD): 136 (55.5) ^c ng*h/mL
  AUClast, geometric mean (geometric CV %): 126 (41.7) ^c; ng*h/mL
  Cmax, arithmetic mean (SD): 55.2 (17.1) ^c ng/mL
  Cmax, geometric mean (geometric CV %): 52.5 (34.0) ^c; ng/mL
  Tmax, median (range): 2.08 (1.50-5.00) h
  t1/2, arithmetic mean (SD): 1.55 (0.325) ^j h
  t1/2, geometric mean (geometric CV %): 1.51 (21.4) ^j; h
[2]; [10]
  AUC0-24, arithmetic mean (SD): 81.3 (30.7) ^e ng*h/mL
  AUC0-24, geometric mean (geometric CV %): 75.6 (42.1) ^e; ng*h/mL
  AUClast, arithmetic mean (SD): 58.4 (18.7) ^e ng*h/mL
  AUClast, geometric mean (geometric CV %): 55.3 (36.4) ^e; ng*h/mL
  Cmax, arithmetic mean (SD): 24.9 (9.21) ^b ng/mL
  Cmax, geometric mean (geometric CV %): 23.2 (40.0) ^b; ng/mL
  Tmax, median (range): 3.00 (1.00-5.00) h
  t1/2, arithmetic mean (SD): 1.96 (0.931) ^f h
  t1/2, geometric mean (geometric CV %): 1.82 (38.5) ^f; h
[2]; [11]
  metabolite concentrations: nonquantifiable levels in all but 1 subject
[2]; [12]
  metabolite levels: nonquantifiable in all but 1 subject
[3]
  metabolite exposure relative to the parent: < 5%

## O=C(O)COc1cccc(-c2nc(Nc3ccc4[nH]ncc4c3)c3ccccc3n2)c1 [KD025m2]
ROCK2
  ROCK2 activity of metabolite: inactive
[2]; [4]
  AUC0-24, geometric mean (geometric CV %): 767 (115.3) ^k; ng*h/mL
  AUCinf, arithmetic mean (SD): 1430 (981) ^q ng*h/mL
  AUCinf, geometric mean (geometric CV %): 1110 (90.3) ^q; ng*h/mL
  AUClast, arithmetic mean (SD): 1160 (998) ^k ng*h/mL
  AUClast, geometric mean (geometric CV %): 783 (122.6) ^k; ng*h/mL
  t1/2, arithmetic mean (SD): 3.20 (2.10) ^r h
  t1/2, geometric mean (geometric CV %): 2.76 (55.1) ^r h
[2]; [5]
  Cmax, arithmetic mean (SD): 129 (133) ^l ng/mL
  Cmax, geometric mean (geometric CV %): 72.3 (166.8) ^l; ng/mL
[2]; [6]
  Cmax, arithmetic mean (SD): 172 (160) ^n ng/mL
  Cmax, geometric mean (geometric CV %): 115 (121.8) ^n; ng/mL
[2]; 200 mg belumosudil BID alone
  AUC0-24, geometric mean (geometric CV %): 1950 (82.3) ^k; ng*h/mL
  AUCinf, arithmetic mean (SD): 2550 (2200) ^c ng*h/mL
  AUCinf, geometric mean (geometric CV %): 1900 (90.4) ^c; ng*h/mL
  AUClast, arithmetic mean (SD): 2690 (2090) ^k ng*h/mL
  AUClast, geometric mean (geometric CV %): 2030 (91.1) ^k; ng*h/mL
  t1/2, arithmetic mean (SD): 5.70 (5.24) ^c h
  t1/2, geometric mean (geometric CV %): 4.32 (78.9) ^c h
[2]; [7]
  Cmax, arithmetic mean (SD): 343 (202) ^k ng/mL
  Cmax, geometric mean (geometric CV %): 282 (75.6) ^k; ng/mL
[2]; [8]
  Cmax, arithmetic mean (SD): 323 (207) ng/mL
  Cmax, geometric mean (geometric CV %): 257 (83.9); ng/mL
[2]; [13]
  AUC0-24, geometric mean (geometric CV %): 745 (70.7); ng*h/mL
  AUCinf, arithmetic mean (SD): 1050 (792) ^c ng*h/mL
  AUCinf, geometric mean (geometric CV %): 843 (73.7) ^c; ng*h/mL
  AUClast, arithmetic mean (SD): 891 (710) ng*h/mL
  AUClast, geometric mean (geometric CV %): 704 (75.5); ng*h/mL
  Cmax, arithmetic mean (SD): 257 (152) ng/mL
  Cmax, geometric mean (geometric CV %): 221 (60.8); ng/mL
  t1/2, arithmetic mean (SD): 4.00 (3.69) ^g h
  t1/2, geometric mean (geometric CV %): 2.89 (92.2) ^g h
[2]; [14]
  AUC0-24, geometric mean (geometric CV %): 110 (84.0) ^v; ng*h/mL
  AUCinf, arithmetic mean (SD): 175 (19.4) ^t ng*h/mL
  AUCinf, geometric mean (geometric CV %): 174 (11.1) ^t; ng*h/mL
  AUClast, arithmetic mean (SD): 108 (76.5) ^v ng*h/mL
  AUClast, geometric mean (geometric CV %): 85.8 (81.6) ^v; ng*h/mL
  Cmax, arithmetic mean (SD): 29.4 (23.8) ^c ng/mL
  Cmax, geometric mean (geometric CV %): 23.5 (70.7) ^c; ng/mL
  t1/2, arithmetic mean (SD): 3.59 (1.84) ^w h
  t1/2, geometric mean (geometric CV %): 3.10 (69.6) ^w h
[2]; [9]
  AUC0-24, geometric mean (geometric CV %): 376 (56.7) ^c; ng*h/mL
  AUCinf, arithmetic mean (SD): 444 (237) ^h ng*h/mL
  AUCinf, geometric mean (geometric CV %): 396 (50.2) ^h; ng*h/mL
  AUClast, arithmetic mean (SD): 407 (237) ^c ng*h/mL
  AUClast, geometric mean (geometric CV %): 349 (61.1) ^c; ng*h/mL
  Cmax, arithmetic mean (SD): 169 (85.8) ^c ng/mL
  Cmax, geometric mean (geometric CV %): 148 (57.3) ^c; ng/mL
  t1/2, arithmetic mean (SD): 1.31 (0.368) ^h
  t1/2, geometric mean (geometric CV %): 1.27 (26.8) ^h
[2]; [10]
  AUC0-24, geometric mean (geometric CV %): 1100 (63.7); ng*h/mL
  AUCinf, arithmetic mean (SD): 1460 (910) ^d ng*h/mL
  AUCinf, geometric mean (geometric CV %): 1230 (69.5) ^d; ng*h/mL
  AUClast, arithmetic mean (SD): 1260 (811) ng*h/mL
  AUClast, geometric mean (geometric CV %): 1050 (68.1); ng*h/mL
  Cmax, arithmetic mean (SD): 379 (182) ng/mL
  Cmax, geometric mean (geometric CV %): 337 (54.7); ng/mL
  t1/2, arithmetic mean (SD): 3.86 (3.24) ^d h
  t1/2, geometric mean (geometric CV %): 3.03 (76.8) ^d h
[2]; [11]
  decrease in AUCinf vs belumosudil alone: 33%
  decrease in AUClast vs belumosudil alone: 33%
  decrease in Cmax vs belumosudil alone: 35%
[2]; coadministration of omeprazole
  decrease in AUC0-24 vs belumosudil alone: ~63%
  decrease in Cmax (first dose) vs belumosudil alone: ~73%
  decrease in Cmax, second dose vs belumosudil alone: ~57%
[2]; [12]
  decrease in AUClast vs belumosudil alone: 94%
  decrease in Cmax vs belumosudil alone: 93%

## C=CC(=O)N1CCC[C@@H](n2nc(-c3ccc(Oc4ccccc4)cc3)c3c(N)ncnc32)C1 [ibrutinib]
Patients with cGVHD
  discontinuation rate because of treatment-emergent adverse events (TEAEs): 43%
